From a melting point compilation (Tetko et al.; mined from patent text by program, amines drawn as free bases though some values may be those of a salt)

Compound `CCOC(=O)c1sc2cc(OCc3ccccc3)ccc2c1Cl` has a melting point of 98 to 100 °C.
`CCCc1c(C(=O)CO)c2ccc(C(N)=O)cc2n1Cc1ccccc1Cl` showed a melting point of 231 to 234 °C.
`C=C(C)C1CCC(C)(C(=O)O)C1=C` (stereo not given) showed a melting point of 66.5 to 68 °C.
Compound `Cc1ccccc1Oc1cccc(NC(=O)c2ccn3c2CSC3c2cccnc2)c1` (stereo not given) has a melting point of 180 °C.
With `CC1(C)C(=O)C(C(=O)Cc2ccc(Cl)cc2)C(=O)C(C)(C)C1=O` the melting point was 57 to 61 °C.
Compound `COc1ccc(-n2nc(C(F)(F)F)cc2OCN2C(=O)c3c(C(C)C)cc(OC)cc3S2(=O)=O)cc1` has a melting point of 111 to 113 °C.
`CC(C)(C)C(OCc1ccc(Cl)cc1)c1cncnc1` (stereo not given) showed a melting point of 77 to 78.5 °C.
Work on `Nc1cc(=O)n(Cc2ccccc2F)[nH]1` yielded a melting point of 146 °C.
For `Oc1ccc(-c2nnc(CSCCCOc3ccccc3)o2)cc1`, the melting point was 122 to 127 °C.
In the case of `CC(=O)OCC(=O)C1=CCC2C3CCC4=CC(=O)C=CC4(C)C34OC4CC12C` (stereo not given), the melting point is reported as 164 to 165 °C.
`CC(=O)Oc1cccc2c(-c3ccccc3)c3cccc(OC(C)=O)c3c(OC(C)=O)c12` showed a melting point of 193 to 194 °C.
`COC(=O)c1cc(-c2ccc3c(=O)[nH]c(=O)[nH]c3n2)ccc1OC` gave a melting point of 301 to 303 °C.
`Cn1ncnc1COc1nn2c(-c3ccccc3F)nnc2cc1C1CCCO1` (stereo not given) gave a melting point of 136 to 139 °C.
Work on `COc1ccc(C(=O)Nc2ccccc2)cc1NCc1ccc(C#N)cc1` yielded a melting point of 130 to 133 °C.
`CCOC(Cc1ccc(OCC=C2c3ccccc3CCc3ccccc32)cc1)C(=O)O` (stereo not given) gave a melting point of 147 to 150 °C.
Compound `Cc1cc2ncn(Cc3ccc([N+](=O)[O-])cc3)c2cc1C` has a melting point of 175 to 177 °C.
For `CCC1(c2ccccc2)OC(C(=O)O)Oc2ccc(Cl)cc21` (stereo not given), the melting point was 85 °C.
`O=S(=O)(Nc1ncnc(Cl)c1-c1ccc(-c2ccccc2)cc1)c1ccc(Cl)cc1` showed a melting point of 234 to 235 °C.
Compound `COc1cccc(C=C2C(=O)c3ccccc3N2C(C)=O)c1[N+](=O)[O-]` has a melting point of 161 to 162 °C.
Compound `N#CC(C(=O)c1ccc(C(F)(F)F)cc1S(=O)(=O)C1CCCCC1)C(=O)C1CC1` (stereo not given) has a melting point of 60 to 62 °C.
Work on `Cc1c(O)ccc(C=O)c1O` yielded a melting point of 150 °C.
Work on `O=C1C=CCC(CCc2ccc(Cl)cc2Cl)O1` (stereo not given) yielded a melting point of 69 to 70 °C.
For `COC(=O)c1ccc(-n2cccc2)cc1`, the melting point was 128 to 129 °C.
Work on `COc1ccc(-c2cnc3cc4cnn(CC(=O)O)c4cc3n2)cc1F` yielded a melting point greater than 260 °C.
Work on `CCS(=O)(=O)c1ccc(Oc2ccc3c(c2)OCO3)nc1` yielded a melting point of 97 to 99 °C.
Work on `Cc1cccc(C)c1/N=C1\SCC(=O)N1N` yielded a melting point of 149 to 152 °C.
Compound `CS(=O)(=O)N1CCC(Nc2nc(Nc3ccc(F)c(Cl)c3)nc(OCC(F)(F)F)n2)C1` (stereo not given) has a melting point of 199 to 200 °C.
Work on `Clc1nc(Cl)c2ncn(C3CC3)c2n1` yielded a melting point of 121 to 124 °C.
`Cc1nsc(OCC(Cl)(Cl)Cl)c1[N+](=O)[O-]` showed a melting point of 60 to 61 °C.
`CN1C(=O)C2(COc3cc4c(cc32)OCCO4)c2c(Oc3ncccc3C(F)(F)F)cccc21` (stereo not given) gave a melting point greater than 250 °C.
`CCOC(=O)Cc1c(C2CCCCC2)nn(-c2ccccc2)c1-c1ccccc1` showed a melting point of 176 to 178 °C.
Work on `CC(C)N1C(=O)NC(NC2CC2)NC1=O` yielded a melting point of 237 to 239 °C.
In the case of `CCOC(=O)c1cnn2c1nc(N)c1cnc3c(cnn3CC)c12`, the melting point is reported as 331 to 332 °C.
`CCn1c(=O)oc2cc(N)ccc21` gave a melting point of 72 to 74 °C.
Compound `O=S(=O)(Cl)c1nc2nc(CF)cc(Cl)n2n1` has a melting point of 92 to 98 °C.
With `O=c1oc(-c2cccc(-c3ccccc3)c2)cc(O)c1SCCc1ccccc1` the melting point was 93 to 94 °C.
For `CCOC(=O)CCc1cc(O)nn1-c1ccccc1`, the melting point was 150 to 151 °C.
In the case of `c1cn2nc(N3CCNCC3)ccc2n1`, the melting point is reported as 122 to 123 °C.
Compound `CC(=O)Oc1ccc(-c2cc3ccc(OC(C)=O)cc3s2)cc1` has a melting point of 208 to 210 °C.
Work on `Cn1cncc1C(O)(c1ccc(Cl)cc1)c1ccc2nc(C=CC(N)=O)cc(-c3cccc(Cl)c3)c2c1` (stereo not given) yielded a melting point of 80 °C.
In the case of `C=CC1(COC(C)=O)OC(OC2C(COCc3ccccc3)OC(OC)C(OCc3ccccc3)C2OCc2ccccc2)C(OC(C)=O)C(OC)C1OC(C)=O` (stereo not given), the melting point is reported as 47 °C.
In the case of `COc1ccc(C2C(C(=O)/C=C/c3ccc(OC)c(OC)c3)C(=O)CC(c3ccc(OC)c(OC)c3)C2[N+](=O)[O-])cc1` (stereo not given), the melting point is reported as 158 to 160 °C.
Compound `COC(=O)C1CCC2C3CCC4CC(OC(C)=O)C(OC)CC4(C)C3C(NC3CCCCC3)CC12C` (stereo not given) has a melting point of 87 to 89 °C.
For `Cc1c(C=NO)c2cc(Cl)ccc2n1-c1ccc(O)cc1`, the melting point was 212 to 213 °C.
For `CCOC(=O)CC(NCCCN(C)C)C(=O)O` (stereo not given), the melting point was 168 to 169 °C.
In the case of `COC(=O)[C@@H](Cc1ccccc1)NC(=O)[C@@H](Cc1c[nH]c2ccccc12)NC(=O)OCc1ccccc1`, the melting point is reported as 130 to 131 °C.
Compound `CCOC(=O)c1cn(-c2ccccc2)nc1OCc1oc2cc(OCc3nc(-c4ccccc4)oc3C)ccc2c1-c1ccccc1` has a melting point of 143 to 144 °C.
`O=C(O)c1cc(F)c(C(F)(F)F)cc1[N+](=O)[O-]` gave a melting point of 142 to 145 °C.
In the case of `CC(=C1SCCCS1)c1ccc(Oc2ccc(S(C)=O)cc2)cc1` (stereo not given), the melting point is reported as 132 °C.
`COCCNC(=O)c1cccc(-c2cccc3cc(Cc4cc(Cl)cc(Cl)c4)sc23)c1` gave a melting point of 109 to 110 °C.
